“And” between values parts separate entries of the source, which are not always exact repeats. Equal values may be shown once. Toxic doses and inconclusive results are not listed. Cut-off read from the data, not from the text of the source: active = T/C of 150% or more; inactive = T/C below 125%.
Tested on: L1210 leukemia ip in BDF1 mice, survival T/C
Assay: NCI In Vivo Anticancer Drug Screen. Data for tumor model L1210 Leukemia (intraperitoneal) in B6D2F1 (BDF1) mice
Conditions: endpoint: mean survival time, higher = longer survival
Procedure, shortened: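 Value reflects the ratio of survival in compound-treated mice to survival in vehicle-treated controls, with both groups carrying the same transplanted tumor.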

[1] = dose: 100.0 mg/kg/injection, schedule: Q01DX009 (ip), vehicle: saline with Tween-80
[2] = dose: 100.0 mg/kg/injection, schedule: Q04DX003 (ip), vehicle: saline with Tween-80
[3] = dose: 200.0 mg/kg/injection, schedule: Q01DX009 (ip), vehicle: saline with Tween-80
[4] = dose: 200.0 mg/kg/injection, schedule: Q04DX003 (ip), vehicle: saline with Tween-80
[5] = dose: 400.0 mg/kg/injection, schedule: Q04DX003 (ip), vehicle: saline with Tween-80
[6] = dose: 100.0 mg/kg/injection, schedule: Q01DX001 (ip), vehicle: saline
[7] = dose: 100.0 mg/kg/injection, schedule: Q04DX003 (ip), vehicle: saline
[8] = dose: 200.0 mg/kg/injection, schedule: Q01DX001 (ip), vehicle: saline
[9] = dose: 200.0 mg/kg/injection, schedule: Q04DX003 (ip), vehicle: saline
[10] = dose: 400.0 mg/kg/injection, schedule: Q01DX001 (ip), vehicle: saline
[11] = dose: 100.0 mg/kg/injection, schedule: Q01DX009 (ip), vehicle: Klucel (hydroxypropylcellulose) (HPC)
[12] = dose: 100.0 mg/kg/injection, schedule: Q04DX003 (ip), vehicle: Klucel (hydroxypropylcellulose) (HPC)
[13] = dose: 200.0 mg/kg/injection, schedule: Q01DX009 (ip), vehicle: Klucel (hydroxypropylcellulose) (HPC)
[14] = dose: 200.0 mg/kg/injection, schedule: Q04DX003 (ip), vehicle: Klucel (hydroxypropylcellulose) (HPC)
[15] = dose: 400.0 mg/kg/injection, schedule: Q01DX009 (ip), vehicle: Klucel (hydroxypropylcellulose) (HPC)
[16] = dose: 400.0 mg/kg/injection, schedule: Q04DX003 (ip), vehicle: Klucel (hydroxypropylcellulose) (HPC)

Measured: T/C

CCC(=O)C(CC)c1ccccc1 (stereo not drawn)
inactive: [1] 95 % of control | [2] 102 % of control | [3] 94 % of control | [4] 97 % of control | dose: 400.0 mg/kg/injection, schedule: Q01DX009 (ip), vehicle: saline with Tween-80 100 % of control | [5] 97 % of control

S=c1ssc2ccccc12
inactive: dose: 50.0 mg/kg/injection, schedule: Q04DX003 (ip), vehicle: saline 100 % of control | [6] 94 % of control and 96 % of control | [7] 97 % of control | [8] 94 % of control and 101 % of control | [9] 97 % of control | [10] 98 % of control

O=C(c1ccccc1)N1C(c2ccccc2)C1(c1ccccc1)C1(c2ccccc2)SCCCS1 (stereo not drawn)
inactive: [11] 94 % of control | [12] 108 % of control | [13] 101 % of control | [14] 100 % of control | [15] 91 % of control | [16] 97 % of control

CC1CCCC(NC(=O)NCCCl)C1 (stereo not drawn)
inactive: [12] 95 % of control | [14] 87 % of control | [16] 98 % of control

O=C(O)/C=C/c1ccccc1C(=O)O
inactive: [7] 100 % of control | [9] 91 % of control | dose: 400.0 mg/kg/injection, schedule: Q04DX003 (ip), vehicle: saline 103 % of control

NC(=O)c1ccccc1NC(=O)Nc1ccccc1C(F)(F)F
inactive: [11] 98 % of control | [13] 98 % of control | [15] 100 % of control

COc1ccccc1N=NN(C)C
inactive: dose: 1.0 mg/kg/injection, schedule: Q01DX009 (ip), vehicle: Klucel (hydroxypropylcellulose) (HPC) 115 % of control | dose: 3.0 mg/kg/injection, schedule: Q01DX009 (ip), vehicle: Klucel (hydroxypropylcellulose) (HPC) 101 % of control | dose: 3.12 mg/kg/injection, schedule: Q01DX009 (ip), vehicle: Klucel (hydroxypropylcellulose) (HPC) 100 % of control | dose: 3.12 mg/kg/injection, schedule: Q04DX003 (ip), vehicle: Klucel (hydroxypropylcellulose) (HPC) 95 % of control | dose: 6.0 mg/kg/injection, schedule: Q01DX009 (ip), vehicle: Klucel (hydroxypropylcellulose) (HPC) 115 % of control | dose: 6.25 mg/kg/injection, schedule: Q01DX009 (ip), vehicle: Klucel (hydroxypropylcellulose) (HPC) 108 % of control | dose: 6.25 mg/kg/injection, schedule: Q04DX003 (ip), vehicle: Klucel (hydroxypropylcellulose) (HPC) 109 % of control | dose: 12.5 mg/kg/injection, schedule: Q01DX009 (ip), vehicle: Klucel (hydroxypropylcellulose) (HPC) 94 % of control | dose: 12.5 mg/kg/injection, schedule: Q04DX003 (ip), vehicle: Klucel (hydroxypropylcellulose) (HPC) 113 % of control

[N-]=[N+]=CC(=O)CCC(=O)C=[N+]=[N-]
inactive: dose: 0.75 mg/kg/injection, schedule: Q01DX009 (ip), vehicle: other 98 % of control | dose: 1.5 mg/kg/injection, schedule: Q01DX009 (ip), vehicle: other 116 % of control | dose: 6.0 mg/kg/injection, schedule: Q01DX009 (ip), vehicle: other 116 % of control

O=C1NC(c2ccccc2)C(c2ccccc2)N1 (stereo not drawn)
inactive: [6] 97 % of control | [8] 100 % of control | [10] 97 % of control

CC(=N)c1c(O)cc(C)oc1=O
inactive: [2] 108 % of control | [4] 101 % of control | [5] 92 % of control

O=c1[nH]cnc2c1nc1n2CCC1
inactive: dose: 50.0 mg/kg/injection, schedule: Q01DX009 (ip), vehicle: saline with Tween-80 93 % of control | [1] 90 % of control | [2] 105 % of control | [3] 88 % of control | [4] 102 % of control

c1ccc(C(c2ccccc2)(c2nccs2)n2ccnc2)cc1
inactive: [12] 95 % of control | [14] 98 % of control | [16] 104 % of control

Reference: PubChem BioAssay AID248 (DTP/NCI, 2004)
